Values of other authors as cited in patent US20160120822A1, “COMPOSITION CONTAINING ROTIGOTINE AND USE THEREOF AND TRANSDERMAL PATCH CONTAINING THE COMPOSITION” (Jiangsu Kangbeide Pharmaceuticals Co. Ltd., priority 2007, published 2016).

Details: oral formulations

## CCCN(CCc1cccs1)[C@H]1CCc2c(O)cccc2C1 [Rotigotine]
  clearance after oral intake: overly high
  duration of action after oral intake: relatively short
